The text below walks through data of patent US20260092071A1, “COMPOUNDS AND COMPOSITIONS AS SMARCA2/4 DEGRADERS AND USES THEREOF” (REGENTS OF THE UNIVERSITY OF MICHIGAN, priority 2022, published 2026).

The target of assay [1] is SMARCA2 (Homo sapiens, UniProt P51531). The assay can be described thus: HiBiT assay for protein degradation, Hela SMARCA2-HiBiT cells (A series). Type of assay: cell-based. Also noted: Hela cells were genetically modified via CRISPR/Cas9 to fuse HiBiT to the carboxy terminus of SMARCA2; host or cells: HeLa (CRISPR/Cas9 HiBiT knock-in). The following applies: for DC50: read-out: SMARC A2 Hela HiBit DC50; for Dmax: read-out: SMARC A2 Hela HiBit Dmax (%). A digest of the protocol:
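HeLa cells engineered by CRISPR/Cas9 to carry a HiBiT tag fused to the C-terminus of SMARCA2 (Promega CS302365) were grown in DMEM supplemented with FBS and penicillin-streptomycin. After treatment, remaining SMARCA2 protein was quantified with the Nano-Glo® HiBiT Lytic Detection Assay (Promega N3050), and curves were fitted in GraphPad Prism.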
Background: The HiBiT peptide binds its large partner to form an active luciferase.

Assay [2] deals with SMARCA4 (Homo sapiens, UniProt P51532). The assay can be described thus: HiBiT assay for protein degradation, Hela SMARCA4-HiBiT cells (A series). Type of assay: cell-based. Also noted: fuse HiBiT to the carboxy terminus of SMARCA2 (Promega CS302365) or SMARCA4 (Promega CS3023225); host or cells: HeLa (CRISPR/Cas9 HiBiT knock-in). To be noted: for DC50: read-out: SMARC A4 Hela HiBit DC50. A digest of the protocol:
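HeLa cells engineered by CRISPR/Cas9 to carry a HiBiT tag fused to the C-terminus of SMARCA4 (Promega CS3023225) were grown in DMEM supplemented with FBS and penicillin-streptomycin. After compound exposure, remaining SMARCA4 protein was quantified using the Nano-Glo® HiBiT Lytic Detection Assay (Promega N3050), and curves were fitted in GraphPad Prism.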

Setting [3] is: Hela SMARCA2-HiBiT cells, 24 hours treatment.
Where [4] appears, read: Hela SMARCA4-HiBiT cells, 24 hours treatment.
[5] abbreviates: Hela SMARCA4-HiBiT cells, 24 hours treatment, read-out: SMARC A4 Hela HiBit Dmax.

Like-named read-outs stand apart in the source and are kept apart here. A value given as a limit tells only on which side of the number the result lay.

SMARCA2, sequence (P51531 whole entry, the tested form may be a part): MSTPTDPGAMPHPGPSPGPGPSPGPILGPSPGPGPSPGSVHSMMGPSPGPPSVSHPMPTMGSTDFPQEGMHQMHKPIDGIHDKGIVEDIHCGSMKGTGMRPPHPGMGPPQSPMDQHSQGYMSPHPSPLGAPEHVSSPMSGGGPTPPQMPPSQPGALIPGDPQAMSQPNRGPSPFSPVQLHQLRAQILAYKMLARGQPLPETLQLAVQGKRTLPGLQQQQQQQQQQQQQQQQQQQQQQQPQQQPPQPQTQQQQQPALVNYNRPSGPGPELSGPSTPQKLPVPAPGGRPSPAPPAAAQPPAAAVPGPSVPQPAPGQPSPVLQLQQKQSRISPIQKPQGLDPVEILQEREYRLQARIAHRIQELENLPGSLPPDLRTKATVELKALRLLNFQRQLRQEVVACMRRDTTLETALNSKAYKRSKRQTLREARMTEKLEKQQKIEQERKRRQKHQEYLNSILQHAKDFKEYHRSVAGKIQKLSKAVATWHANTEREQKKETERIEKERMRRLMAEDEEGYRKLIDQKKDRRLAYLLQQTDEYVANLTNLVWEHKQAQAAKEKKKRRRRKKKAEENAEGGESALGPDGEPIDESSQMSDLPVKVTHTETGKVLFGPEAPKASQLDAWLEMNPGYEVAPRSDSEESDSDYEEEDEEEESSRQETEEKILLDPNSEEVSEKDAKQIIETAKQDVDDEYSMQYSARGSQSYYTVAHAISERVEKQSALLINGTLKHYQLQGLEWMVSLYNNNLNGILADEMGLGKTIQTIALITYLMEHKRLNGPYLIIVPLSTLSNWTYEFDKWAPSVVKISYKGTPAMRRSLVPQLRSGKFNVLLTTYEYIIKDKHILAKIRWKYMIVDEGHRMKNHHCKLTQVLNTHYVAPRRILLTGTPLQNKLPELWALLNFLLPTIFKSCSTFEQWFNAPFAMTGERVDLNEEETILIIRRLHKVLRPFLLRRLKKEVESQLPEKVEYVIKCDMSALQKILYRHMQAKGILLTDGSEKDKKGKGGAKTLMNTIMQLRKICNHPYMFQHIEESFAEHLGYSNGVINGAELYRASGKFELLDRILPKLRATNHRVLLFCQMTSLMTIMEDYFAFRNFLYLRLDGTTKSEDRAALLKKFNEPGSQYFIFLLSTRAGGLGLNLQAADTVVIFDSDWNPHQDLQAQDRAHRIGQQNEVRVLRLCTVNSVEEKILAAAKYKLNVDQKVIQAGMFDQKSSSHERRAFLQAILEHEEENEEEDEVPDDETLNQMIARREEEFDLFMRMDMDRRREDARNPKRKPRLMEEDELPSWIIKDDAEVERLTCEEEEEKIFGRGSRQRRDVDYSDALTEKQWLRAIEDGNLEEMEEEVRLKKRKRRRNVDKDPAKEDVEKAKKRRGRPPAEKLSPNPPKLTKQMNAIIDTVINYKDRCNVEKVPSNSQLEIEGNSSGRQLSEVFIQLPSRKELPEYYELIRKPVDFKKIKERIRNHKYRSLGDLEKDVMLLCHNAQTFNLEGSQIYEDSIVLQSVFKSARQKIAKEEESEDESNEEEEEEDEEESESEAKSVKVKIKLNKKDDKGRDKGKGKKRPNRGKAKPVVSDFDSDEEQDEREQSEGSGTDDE
SMARCA4, sequence (P51532 whole entry, the tested form may be a part): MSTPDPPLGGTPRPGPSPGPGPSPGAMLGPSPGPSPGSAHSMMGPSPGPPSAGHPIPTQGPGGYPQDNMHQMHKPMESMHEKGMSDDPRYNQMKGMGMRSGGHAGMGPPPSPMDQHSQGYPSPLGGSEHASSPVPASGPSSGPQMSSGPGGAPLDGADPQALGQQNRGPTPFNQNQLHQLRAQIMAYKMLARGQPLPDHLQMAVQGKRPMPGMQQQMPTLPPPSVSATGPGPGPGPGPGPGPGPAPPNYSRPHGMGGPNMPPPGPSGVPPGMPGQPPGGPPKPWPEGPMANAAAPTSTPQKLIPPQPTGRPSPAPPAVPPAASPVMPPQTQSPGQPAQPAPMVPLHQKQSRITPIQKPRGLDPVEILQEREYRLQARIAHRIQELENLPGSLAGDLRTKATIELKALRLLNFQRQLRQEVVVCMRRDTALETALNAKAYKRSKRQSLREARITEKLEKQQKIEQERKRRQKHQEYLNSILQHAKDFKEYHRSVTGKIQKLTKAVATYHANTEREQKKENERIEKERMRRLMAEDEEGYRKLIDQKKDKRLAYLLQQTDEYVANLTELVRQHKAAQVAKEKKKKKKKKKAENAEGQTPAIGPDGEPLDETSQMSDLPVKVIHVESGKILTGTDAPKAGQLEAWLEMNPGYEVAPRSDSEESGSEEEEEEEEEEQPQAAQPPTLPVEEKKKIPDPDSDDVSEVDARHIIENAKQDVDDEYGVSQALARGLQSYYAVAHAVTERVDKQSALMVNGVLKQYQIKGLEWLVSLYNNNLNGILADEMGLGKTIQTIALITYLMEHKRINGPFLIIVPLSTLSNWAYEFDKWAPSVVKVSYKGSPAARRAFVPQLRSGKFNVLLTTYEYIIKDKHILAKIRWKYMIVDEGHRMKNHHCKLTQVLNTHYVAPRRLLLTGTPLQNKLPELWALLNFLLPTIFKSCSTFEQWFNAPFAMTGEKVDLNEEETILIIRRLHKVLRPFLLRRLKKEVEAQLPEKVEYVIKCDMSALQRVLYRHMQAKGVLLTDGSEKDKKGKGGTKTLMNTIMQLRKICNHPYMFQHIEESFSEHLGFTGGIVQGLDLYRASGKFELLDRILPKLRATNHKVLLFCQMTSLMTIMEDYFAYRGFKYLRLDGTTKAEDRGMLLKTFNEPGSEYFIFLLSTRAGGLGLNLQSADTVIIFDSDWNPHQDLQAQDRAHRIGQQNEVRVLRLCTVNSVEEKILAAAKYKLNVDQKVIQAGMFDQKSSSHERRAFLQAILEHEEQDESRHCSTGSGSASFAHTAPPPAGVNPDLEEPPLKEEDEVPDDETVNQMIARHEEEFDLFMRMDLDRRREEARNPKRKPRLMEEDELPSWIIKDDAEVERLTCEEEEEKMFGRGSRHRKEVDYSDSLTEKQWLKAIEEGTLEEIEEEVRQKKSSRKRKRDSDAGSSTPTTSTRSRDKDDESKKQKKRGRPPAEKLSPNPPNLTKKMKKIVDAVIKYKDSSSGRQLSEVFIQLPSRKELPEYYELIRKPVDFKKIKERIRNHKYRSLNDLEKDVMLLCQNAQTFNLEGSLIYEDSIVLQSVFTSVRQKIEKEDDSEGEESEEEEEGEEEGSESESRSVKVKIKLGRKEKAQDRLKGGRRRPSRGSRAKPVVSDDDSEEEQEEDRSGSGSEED

As for `CC(C)(C)[C@@H](C(=O)N1C[C@H](O)C[C@H]1C(=O)N[C@@H](CN1CCOCC1)c1ccc(-c2ccccn2)cc1)n1cc([C@H]2CC[C@H](CN3CCC(c4ccc5c(c4)-n4c(nc(=O)c6c(Cl)cccc64)C54CCCCC4)CC3)CC2)nn1` [Compound A173, (2S,4R)-1-((S)-2-(4-((1r,4S)-4-((4-(4′-chloro-5′-oxo-5′H-spiro[cyclohexane-1,7′-indolo[1,2-a]quinazolin]-10′-yl)piperidin-1-yl)methyl)cyclohexyl)-1H-1,2,3-triazol-1-yl)-3,3-dimethylbutanoyl)-4-hydroxy-N—((R)-2-morpholino-1-(4-(pyridin-2-yl)phenyl)ethyl)pyrrolidine-2-carboxamide], the figures for the DC50 in assay [1] (setting [3]) and in assay [2] (setting [4]) were under 10 nM and over 1000 nM, respectively. Further, the Dmax is over 90% in assay [1] (setting [3]) and under 50% in assay [2] (setting [5]).

Turning to `CC(C)(C)[C@@H](C(=O)N1C[C@H](O)C[C@H]1C(=O)N[C@@H](CN1CCOCC1)c1ccc(-c2cccnc2)cc1)n1cc([C@H]2CC[C@H](CN3CCC(c4ccc5c(c4)-n4c(nc(=O)c6c(Cl)cccc64)C54CCCCC4)CC3)CC2)nn1` [Compound A171, (2S,4R)-1-((S)-2-(4-((1r,4S)-4-((4-(4′-chloro-5′-oxo-5′H-spiro[cyclohexane-1,7′-indolo[1,2-a]quinazolin]-10′-yl)piperidin-1-yl)methyl)cyclohexyl)-1H-1,2,3-triazol-1-yl)-3,3-dimethylbutanoyl)-4-hydroxy-N—((R)-2-morpholino-1-(4-(pyridin-3-yl)phenyl)ethyl)pyrrolidine-2-carboxamide], the half-maximal degradation concentration (DC50) in assay [1] (setting [3]) was under 10 nM; in assay [2] (setting [4]) it was 100 to 1000 nM. Also, the Dmax in assay [1] (setting [3]) was over 90%; in assay [2] (setting [5]) it was 50 to 69%.

On to `Cc1ncsc1-c1ccc([C@H](C)NC(=O)[C@@H]2C[C@@H](O)CN2C(=O)[C@H](C2CCCCC2)n2cc([C@H]3CC[C@H](CN4CCC(c5ccc6c(c5)-n5c(nc(=O)c7c(Br)cccc75)C65CCCCC5)CC4)CC3)nn2)cc1` [Compound A119, (2S,4R)-1-((S)-2-(4-((1r,4S)-4-((4-(4′-bromo-5′-oxo-5′H-spiro[cyclohexane-1,7′-indolo[1,2-a]quinazolin]-10′-yl)piperidin-1-yl)methyl)cyclohexyl)-1H-1,2,3-triazol-1-yl)-2-cyclohexylacetyl)-4-hydroxy-N—((S)-1-(4-(4-methylthiazol-5-yl)phenyl)ethyl)pyrrolidine-2-carboxamide], for which the half-maximal degradation concentration (DC50) was under 10 nM in assay [1] (setting [3]) and 10 to 100 nM in assay [2] (setting [4]). For the same compound, the Dmax in assay [1] (setting [3]) is over 90%; in assay [2] (setting [5]) it was 70 to 90%.

Turning to `Cc1ncsc1-c1ccc([C@H](C)NC(=O)[C@@H]2C[C@@H](O)CN2C(=O)[C@@H](n2cc(-c3ccc(CN4CCC(c5ccc6c(c5)-n5c(nc(=O)c7c(Br)cccc75)C65CCCCC5)CC4)nc3)nn2)C(C)(C)C)cc1` [Compound A66], the “SMARC A2 Hela HiBit Dmax (%)” value in assay [1] (setting [3]) is recorded as “C (C (50-69% degradation))”. Moreover, the DC50 in assay [1] and in assay [2] was over 1000 nM throughout. The “SMARC A4 Hela HiBit Dmax(%)” value in assay [2] (setting [4]) is “D (D (<50% degradation))”.

Turning to `Cc1ccncc1-c1ccc([C@H](CN2CCOCC2)NC(=O)[C@@H]2C[C@@H](O)CN2C(=O)[C@@H](n2cc([C@H]3CC[C@H](CN4CCC(c5ccc6c(c5)-n5c(nc(=O)c7c(Cl)cccc75)C65CCCCC5)CC4)CC3)nn2)C(C)(C)C)cc1` [Compound A175], the DC50 in assay [1] (setting [3]) is under 10 nM; in assay [2] (setting [4]), over 1000 nM. In addition, the values for the Dmax in assay [1] (setting [3]) and in assay [2] (setting [5]) were over 90% and under 50%, respectively.

In the case of `Cc1ncsc1-c1ccc([C@H](C)NC(=O)[C@@H]2C[C@@H](O)CN2C(=O)[C@@H](n2cc([C@H]3C[C@H](CN4CCC(c5ccc6c(c5)-n5c(nc(=O)c7c(Br)cccc75)C65CCCCC5)CC4)C3)nn2)C(C)(C)C)cc1` [Compound A63, (2S,4R)-1-((S)-2-(4-((1r,3S)-3-((4-(4′-bromo-5′-oxo-5′H-spiro[cyclohexane-1,7′-indolo[1,2-a]quinazolin]-10′-yl)piperidin-1-yl)methyl)cyclobutyl)-1H-1,2,3-triazol-1-yl)-3,3-dimethylbutanoyl)-4-hydroxy-N—((S)-1-(4-(4-methylthiazol-5-yl)phenyl)ethyl)pyrrolidine-2-carboxamide], the “SMARC A2 Hela HiBit Dmax (%)” value in assay [1] (setting [3]) is on record as “A (A (>90% degradation))”. Also, the half-maximal degradation concentration (DC50) in assay [1] and in assay [2] was under 100 nM each time. For the same compound, in assay [2] (setting [4]), the “SMARC A4 Hela HiBit Dmax(%)” value was “B (B (70-90% degradation))”.

Consider `Cc1ncsc1-c1ccc([C@H](CN2CCC3(COC3)C2)NC(=O)[C@@H]2C[C@@H](O)CN2C(=O)[C@@H](n2cc([C@H]3CC[C@H](CN4CCC(c5ccc6c(c5)-n5c(nc(=O)c7c(Cl)cccc75)C65CCCCC5)CC4)CC3)nn2)C(C)(C)C)cc1` [Compound A97, (2S,4R)-1-((S)-2-(4-((1r,4S)-4-((4-(4′-chloro-5′-oxo-5′H-spiro[cyclohexane-1,7′-indolo[1,2-a]quinazolin]-10′-yl)piperidin-1-yl)methyl)cyclohexyl)-1H-1,2,3-triazol-1-yl)-3,3-dimethylbutanoyl)-4-hydroxy-N—((R)-1-(4-(4-methylthiazol-5-yl)phenyl)-2-(2-oxa-6-azaspiro[3.4]octan-6-yl)ethyl)pyrrolidine-2-carboxamide], for which the DC50 was under 10 nM in assay [1] (setting [3]) and over 1000 nM in assay [2] (setting [4]). Further, the figures for the Dmax in assay [1] (setting [3]) and in assay [2] (setting [5]) were over 90% and 50 to 69%, respectively.

For `CC(C)(C)[C@@H](C(=O)N1C[C@H](O)C[C@H]1C(=O)N[C@@H](CN1CCOCC1)c1ccc(-c2ccccc2)cc1)n1cc([C@H]2CC[C@H](CN3CCC(c4ccc5c(c4)-n4c(nc(=O)c6c(Cl)cccc64)C54CCCCC4)CC3)CC2)nn1` [Compound A162, (2S,4R)—N—((R)-1-([1,1′-biphenyl]-4-yl)-2-morpholinoethyl)-1-((S)-2-(4-((1r,4S)-4-((4-(4′-chloro-5′-oxo-5′H-spiro[cyclohexane-1,7′-indolo[1,2-a]quinazolin]-10′-yl)piperidin-1-yl)methyl)cyclohexyl)-1H-1,2,3-triazol-1-yl)-3,3-dimethylbutanoyl)-4-hydroxypyrrolidine-2-carboxamide], the 50% degradation concentration (DC50) in assay [1] (setting [3]) was under 10 nM; in assay [2] (setting [4]), 100 to 1000 nM. Besides, the Dmax in assay [1] (setting [3]) is over 90%; in assay [2] (setting [5]) it was 50 to 69%.

As to `Cc1ncsc1-c1ccc([C@H](CN2CCOCC2)NC(=O)[C@@H]2C[C@@H](O)CN2C(=O)[C@@H](n2cc([C@H]3CC[C@H](CN4CCC(c5ncc6c(n5)-n5c(nc(=O)c7c(Br)cccc75)C65CCCCC5)CC4)CC3)nn2)C(C)(C)C)cc1` [Compound A32, (2S,4R)-1-((S)-2-(4-((1r,4S)-4-((4-(4′-bromo-5′-oxo-5′H-spiro[cyclohexane-1,7′-pyrimido[5′,4′: 4,5]pyrrolo[1,2-a]quinazolin]-10′-yl)piperidin-1-yl)methyl)cyclohexyl)-1H-1,2,3-triazol-1-yl)-3,3-dimethylbutanoyl)-4-hydroxy-N—((R)-1-(4-(4-methylthiazol-5-yl)phenyl)-2-morpholinoethyl)pyrrolidine-2-carboxamide], the DC50 in assay [1] (setting [3]) and in assay [2] (setting [4]) was over 1000 nM throughout. The Dmax in assay [1] (setting [3]) was under 50%; in assay [2] (Hela SMARCA4-HiBiT cells, 24 hours treatment, read-out: SMARC A4 Hela HiBit Dmax(%)), 70 to 90%.

For `Cc1nc(C)c(-c2ccc([C@H](CN3CCOCC3)NC(=O)[C@@H]3C[C@@H](O)CN3C(=O)[C@@H](n3cc([C@H]4CC[C@H](CN5CCC(c6ccc7c(c6)-n6c(nc(=O)c8c(Cl)cccc86)C76CCCCC6)CC5)CC4)nn3)C(C)(C)C)cc2)o1` [Compound A166, (2S,4R)-1-((S)-2-(4-((1r,4S)-4-((4-(4′-chloro-5′-oxo-5′H-spiro[cyclohexane-1,7′-indolo[1,2-a]quinazolin]-10′-yl)piperidin-1-yl)methyl)cyclohexyl)-1H-1,2,3-triazol-1-yl)-3,3-dimethylbutanoyl)-N—((R)-1-(4-(2,4-dimethyloxazol-5-yl)phenyl)-2-morpholinoethyl)-4-hydroxypyrrolidine-2-carboxamide], the DC50 is 10 to 100 nM in assay [1] (setting [3]) and over 1000 nM in assay [2] (setting [4]). The figures for the Dmax in assay [1] (setting [3]) and in assay [2] (setting [5]) were 70 to 90% and under 50%, respectively.

One may read the DC50 as the concentration at which degradation of the target reaches its halfway point. By Dmax is commonly meant the largest share of the target that was removed.
